From paper PMC10797637 (Journal of natural products, 2023) come the findings set out here.

Bounds are passed on as bounds.

One assay has as its system HepG2 human hepatocytes. The assay is described as follows: Human cell cytotoxicity assay. The note with it: HepG2, read-out: HepG2 EC50. The class given is cell-based.
A further assay has as its system P. falciparum Dd2. The assay is described as follows: Plasmodium falciparum SYBR Green I assay. The class given is cell-based. The note with it: relative to HepG2 cytotoxicity.

Broadly, the EC50 is the concentration at which the effect is half-maximal. In the case of `COC(=O)[C@@]12Oc3cc4c(c(O)c3C(=O)C1=C(O)CC[C@@H]2O)[C@@H]1C=C[C@@]2(C4)C(=O)c3cc(C)cc(O)c3C(=O)[C@]2(O)C1=O` [compound 1, xanthoquinodin NPDG A1], the EC50 in the assay with HepG2 human hepatocytes is > 25 µM.

Take `COC(=O)[C@]1([C@@H](O)CCC(=O)O)CC(=O)c2c(cc3c(c2O)[C@@H]2C=C[C@@]4(C3)C(=O)c3cc(C)cc(O)c3C(O)=C4C2=O)O1` [compound 3, xanthoquinodin NPDG A3]: the concentration giving a half-maximal response (EC50) in the assay with HepG2 human hepatocytes is > 25 µM. On the same count and under the same terms, the result for `COC(=O)[C@]1([C@@H](O)CCC(=O)O)CC(=O)c2c(cc3c(c2O)[C@@H]2C=C[C@@]4(C3)C(=O)c3cc(C)cc(O)c3C(=O)[C@]4(O)C2=O)O1` [compound 4, Xanthoquinodin NPDG A4] reads > 25 µM; that for `COC(=O)[C@]1([C@@H]2CCC(=O)O2)CC(=O)c2c(cc3c(c2O)[C@@H]2C=C[C@@]4(C3)C(=O)c3cc(C)cc(O)c3C(=O)[C@]4(O)C2=O)O1` [compound 5, Xanthoquinodin NPDG A5], > 25 µM; that for `COC(=O)[C@]12Oc3c(c(O)cc4c3[C@@H]3C=C[C@@]5(C4)C(=O)c4cc(C)cc(O)c4C(=O)[C@]5(O)C3=O)C(=O)C1=C(O)CC[C@@H]2O` [compound 6, xanthoquinodin NPDG B1], > 25 µM. Still for that read-out and setting: the figure for `COC(=O)[C@@]12Oc3cc4c(c(O)c3C(=O)C1=C(O)CC[C@@H]2O)[C@@H]1C=C[C@@]2(C4)C(=O)c3cc(C)cc(O)c3C(O)=C2C1=O` [compound 7, xanthoquinodin A1] is > 25 µM. Turning to `COC(=O)[C@]12Oc3cc4c(c(O)c3C(=O)C1=C(O)CC[C@@H]2O)[C@@H]1C=C[C@@]2(C4)C(=O)c3cc(C)cc(O)c3C(O)=C2C1=O` [compound 8, xanthoquinodin A2], the half-maximal effective concentration (EC50) in the assay on HepG2 human hepatocytes was > 25 µM. Besides, the “P. falciparum SI” value in the assay on P. falciparum Dd2 is on record as >50. On to `COC(=O)[C@]1([C@@H]2CCC(=O)O2)CC(=O)c2c(cc3c(c2O)[C@@H]2C=C[C@@]4(C3)C(=O)c3cc(C)cc(O)c3C(O)=C4C2=O)O1` [compound 9, xanthoquinodin A3], for which the EC50 in the assay with HepG2 human hepatocytes is > 25 µM. Regarding `COC(=O)[C@]1([C@@H]2CCC(=O)O2)CC(=O)c2c(O)cc(C)cc2O1` [compound 12, gonytolide C], the concentration for a half-maximal effect (EC50) in the assay with HepG2 human hepatocytes was > 25 µM.
